Measurements reported in patent US20170190671A1, “BIS(ARYL)CATECHOL DERIVATIVES AS HERBICIDES” (E I DU PONT DE NEMOURS AND COMPANY, priority 2014, published 2017).

Legend:
Assay in all cases: Test D postemergence
Assay type in all cases: in vivo
Conditions in all cases: scale 0 to 100
[1] = test system: Italian ryegrass (Lolium multiflorum)
How it was run: (§1)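 Preemergent and postemergent sprays of solvent/surfactant-formulated compound; visual rating 0 (none) to 100 (complete control) after 14–21 days versus controls.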

[2] = test system: Russian thistle (Salsola kali)
How it was run: as §1

[3] = test system: blackgrass (Alopecurus myosuroides)
How it was run: as §1

[4] = test system: bluegrass (annual bluegrass, Poa annua)
How it was run: as §1

[5] = test system: canarygrass (Phalaris minor)
How it was run: as §1

[6] = test system: chamomile (scentless chamomile, Matricaria inodora)
How it was run: as §1

[7] = test system: chickweed (common chickweed, Stellaria media)
How it was run: as §1

[8] = test system: cutleaf geranium (Geranium dissectum)
How it was run: as §1

[9] = test system: deadnettle (henbit deadnettle, Lamium amplexicaule)
How it was run: as §1

[10] = test system: downy bromegrass (Bromus tectorum)
How it was run: as §1

[11] = test system: field violet (Viola arvensis)
How it was run: as §1

[12] = test system: galium (catchweed bedstraw, Galium aparine)
How it was run: as §1

[13] = test system: green foxtail (Setaria viridis)
How it was run: as §1

[14] = test system: kochia (Kochia scoparia)
How it was run: as §1

[15] = test system: pigweed (Amaranthus retroflexus)
How it was run: as §1

[16] = test system: speedwell (bird's-eye speedwell, Veronica persica)
How it was run: as §1

[17] = test system: wild buckwheat (Polygonum convolvulus)
How it was run: as §1

[18] = test system: wild mustard (Sinapis arvensis)
How it was run: as §1

[19] = test system: wild radish (Raphanus raphanistrum)
How it was run: as §1

[20] = test system: winter barley (Hordeum vulgare)
How it was run: as §1

[21] = test system: winter wheat (Triticum aestivum)
How it was run: as §1

FC(F)(F)c1cnc(Oc2c(Br)cccc2Oc2ncc(Cl)cn2)nc1 [Compound 24]
Plant response rating, Ryegrass, Italian ([1]; 16 g ai/ha): 15
Plant response rating, Ryegrass, Italian ([1]; 31 g ai/ha): 20
Plant response rating, Ryegrass, Italian ([1]; 62 g ai/ha): 25
Plant response rating, Ryegrass, Italian ([1]; 125 g ai/ha): 35
Plant response rating, Russian Thistle ([2]; 16 g ai/ha): 10
Plant response rating, Russian Thistle ([2]; 31 g ai/ha): 25
Plant response rating, Russian Thistle ([2]; 62 g ai/ha): 30
Plant response rating, Russian Thistle ([2]; 125 g ai/ha): 55
Plant response rating, Blackgrass ([3]; 16 g ai/ha): 25
Plant response rating, Blackgrass ([3]; 31 g ai/ha): 30
Plant response rating, Blackgrass ([3]; 62 g ai/ha): 35
Plant response rating, Blackgrass ([3]; 125 g ai/ha): 45
Plant response rating, Bluegrass ([4]; 16 g ai/ha): 15
Plant response rating, Bluegrass ([4]; 31 g ai/ha): 20
Plant response rating, Bluegrass ([4]; 62 g ai/ha): 35
Plant response rating, Bluegrass ([4]; 125 g ai/ha): 40
Plant response rating, Canarygrass ([5]; 16 g ai/ha): 30
Plant response rating, Canarygrass ([5]; 31 g ai/ha): 35
Plant response rating, Canarygrass ([5]; 62 g ai/ha): 45
Plant response rating, Canarygrass ([5]; 125 g ai/ha): 45
Plant response rating, Chamomile ([6]; 16 g ai/ha): 5
Plant response rating, Chamomile ([6]; 31 g ai/ha): 5
Plant response rating, Chamomile ([6]; 62 g ai/ha): 10
Plant response rating, Chamomile ([6]; 125 g ai/ha): 15
Plant response rating, Chickweed ([7]; 16 g ai/ha): 60
Plant response rating, Chickweed ([7]; 31 g ai/ha): 70
Plant response rating, Chickweed ([7]; 62 g ai/ha): 75
Plant response rating, Chickweed ([7]; 125 g ai/ha): 85
Plant response rating, Geranium, Cutleaf ([8]; 16 g ai/ha): 20
Plant response rating, Geranium, Cutleaf ([8]; 31 g ai/ha): 30
Plant response rating, Geranium, Cutleaf ([8]; 62 g ai/ha): 45
Plant response rating, Geranium, Cutleaf ([8]; 125 g ai/ha): 65
Plant response rating, Deadnettle ([9]; 16 g ai/ha): 55
Plant response rating, Deadnettle ([9]; 31 g ai/ha): 70
Plant response rating, Deadnettle ([9]; 62 g ai/ha): 75
Plant response rating, Deadnettle ([9]; 125 g ai/ha): 85
Plant response rating, Bromegrass, Downy ([10]; 16 g ai/ha): 15
Plant response rating, Bromegrass, Downy ([10]; 31 g ai/ha): 20
Plant response rating, Bromegrass, Downy ([10]; 62 g ai/ha): 20
Plant response rating, Bromegrass, Downy ([10]; 125 g ai/ha): 25
Plant response rating, Field Violet ([11]; 16 g ai/ha): 65
Plant response rating, Field Violet ([11]; 31 g ai/ha): 75
Plant response rating, Field Violet ([11]; 62 g ai/ha): 85
Plant response rating, Field Violet ([11]; 125 g ai/ha): 98
Plant response rating, Galium ([12]; 16 g ai/ha): 40
Plant response rating, Galium ([12]; 31 g ai/ha): 70
Plant response rating, Galium ([12]; 62 g ai/ha): 85
Plant response rating, Galium ([12]; 125 g ai/ha): 90
Plant response rating, Foxtail, Green ([13]; 16 g ai/ha): 15
Plant response rating, Foxtail, Green ([13]; 31 g ai/ha): 15
Plant response rating, Foxtail, Green ([13]; 62 g ai/ha): 20
Plant response rating, Foxtail, Green ([13]; 125 g ai/ha): 30
Plant response rating, Kochia ([14]; 16 g ai/ha): 40
Plant response rating, Kochia ([14]; 31 g ai/ha): 65
Plant response rating, Kochia ([14]; 62 g ai/ha): 80
Plant response rating, Kochia ([14]; 125 g ai/ha): 95
Plant response rating, Pigweed ([15]; 16 g ai/ha): 85
Plant response rating, Pigweed ([15]; 31 g ai/ha): 95
Plant response rating, Pigweed ([15]; 62 g ai/ha): 98
Plant response rating, Pigweed ([15]; 125 g ai/ha): 100
Plant response rating, Speedwell ([16]; 16 g ai/ha): 35
Plant response rating, Speedwell ([16]; 31 g ai/ha): 60
Plant response rating, Speedwell ([16]; 62 g ai/ha): 80
Plant response rating, Speedwell ([16]; 125 g ai/ha): 90
Plant response rating, Buckwheat, Wild ([17]; 16 g ai/ha): 60
Plant response rating, Buckwheat, Wild ([17]; 31 g ai/ha): 60
Plant response rating, Buckwheat, Wild ([17]; 62 g ai/ha): 75
Plant response rating, Buckwheat, Wild ([17]; 125 g ai/ha): 95
Plant response rating, Mustard, Wild ([18]; 16 g ai/ha): 50
Plant response rating, Mustard, Wild ([18]; 31 g ai/ha): 80
Plant response rating, Mustard, Wild ([18]; 62 g ai/ha): 70
Plant response rating, Mustard, Wild ([18]; 125 g ai/ha): 85
Plant response rating, Radish, Wild ([19]; 16 g ai/ha): 75
Plant response rating, Radish, Wild ([19]; 31 g ai/ha): 75
Plant response rating, Radish, Wild ([19]; 62 g ai/ha): 95
Plant response rating, Radish, Wild ([19]; 125 g ai/ha): 100
Plant response rating, Barley, Winter ([20]; 16 g ai/ha): 10
Plant response rating, Barley, Winter ([20]; 31 g ai/ha): 15
Plant response rating, Barley, Winter ([20]; 62 g ai/ha): 20
Plant response rating, Barley, Winter ([20]; 125 g ai/ha): 25
Plant response rating, Wheat, Winter ([21]; 16 g ai/ha): 10
Plant response rating, Wheat, Winter ([21]; 31 g ai/ha): 10
Plant response rating, Wheat, Winter ([21]; 62 g ai/ha): 15
Plant response rating, Wheat, Winter ([21]; 125 g ai/ha): 15

Fc1cnc(Oc2c(Br)cccc2Oc2ncc(Cl)cn2)nc1 [Compound 22]
Plant response rating, Ryegrass, Italian ([1]; 16 g ai/ha): 15
Plant response rating, Ryegrass, Italian ([1]; 31 g ai/ha): 20
Plant response rating, Ryegrass, Italian ([1]; 62 g ai/ha): 25
Plant response rating, Ryegrass, Italian ([1]; 125 g ai/ha): 35
Plant response rating, Russian Thistle ([2]; 16 g ai/ha): 0
Plant response rating, Russian Thistle ([2]; 31 g ai/ha): 5
Plant response rating, Russian Thistle ([2]; 62 g ai/ha): 10
Plant response rating, Russian Thistle ([2]; 125 g ai/ha): 15
Plant response rating, Blackgrass ([3]; 16 g ai/ha): 20
Plant response rating, Blackgrass ([3]; 31 g ai/ha): 30
Plant response rating, Blackgrass ([3]; 62 g ai/ha): 35
Plant response rating, Blackgrass ([3]; 125 g ai/ha): 40
Plant response rating, Bluegrass ([4]; 16 g ai/ha): 0
Plant response rating, Bluegrass ([4]; 31 g ai/ha): 5
Plant response rating, Bluegrass ([4]; 62 g ai/ha): 15
Plant response rating, Bluegrass ([4]; 125 g ai/ha): 40
Plant response rating, Canarygrass ([5]; 16 g ai/ha): 10
Plant response rating, Canarygrass ([5]; 31 g ai/ha): 10
Plant response rating, Canarygrass ([5]; 62 g ai/ha): 20
Plant response rating, Canarygrass ([5]; 125 g ai/ha): 25
Plant response rating, Chamomile ([6]; 16 g ai/ha): 0
Plant response rating, Chamomile ([6]; 31 g ai/ha): 0
Plant response rating, Chamomile ([6]; 62 g ai/ha): 0
Plant response rating, Chamomile ([6]; 125 g ai/ha): 5
Plant response rating, Chickweed ([7]; 16 g ai/ha): 30
Plant response rating, Chickweed ([7]; 31 g ai/ha): 75
Plant response rating, Chickweed ([7]; 62 g ai/ha): 75
Plant response rating, Chickweed ([7]; 125 g ai/ha): 75
Plant response rating, Geranium, Cutleaf ([8]; 16 g ai/ha): 45
Plant response rating, Geranium, Cutleaf ([8]; 31 g ai/ha): 55
Plant response rating, Geranium, Cutleaf ([8]; 62 g ai/ha): 55
Plant response rating, Geranium, Cutleaf ([8]; 125 g ai/ha): 60
Plant response rating, Deadnettle ([9]; 16 g ai/ha): 50
Plant response rating, Deadnettle ([9]; 31 g ai/ha): 50
Plant response rating, Deadnettle ([9]; 62 g ai/ha): 65
Plant response rating, Deadnettle ([9]; 125 g ai/ha): 90
Plant response rating, Bromegrass, Downy ([10]; 16 g ai/ha): 5
Plant response rating, Bromegrass, Downy ([10]; 31 g ai/ha): 10
Plant response rating, Bromegrass, Downy ([10]; 62 g ai/ha): 20
Plant response rating, Bromegrass, Downy ([10]; 125 g ai/ha): 25
Plant response rating, Field Violet ([11]; 16 g ai/ha): 25
Plant response rating, Field Violet ([11]; 31 g ai/ha): 40
Plant response rating, Field Violet ([11]; 62 g ai/ha): 70
Plant response rating, Field Violet ([11]; 125 g ai/ha): 75
Plant response rating, Galium ([12]; 16 g ai/ha): 70
Plant response rating, Galium ([12]; 31 g ai/ha): 60
Plant response rating, Galium ([12]; 62 g ai/ha): 75
Plant response rating, Galium ([12]; 125 g ai/ha): 85
Plant response rating, Foxtail, Green ([13]; 16 g ai/ha): 10
Plant response rating, Foxtail, Green ([13]; 31 g ai/ha): 15
Plant response rating, Foxtail, Green ([13]; 62 g ai/ha): 25
Plant response rating, Foxtail, Green ([13]; 125 g ai/ha): 30
Plant response rating, Kochia ([14]; 16 g ai/ha): 40
Plant response rating, Kochia ([14]; 31 g ai/ha): 45
Plant response rating, Kochia ([14]; 62 g ai/ha): 60
Plant response rating, Kochia ([14]; 125 g ai/ha): 70
Plant response rating, Pigweed ([15]; 16 g ai/ha): 75
Plant response rating, Pigweed ([15]; 31 g ai/ha): 80
Plant response rating, Pigweed ([15]; 62 g ai/ha): 75
Plant response rating, Pigweed ([15]; 125 g ai/ha): 95
Plant response rating, Speedwell ([16]; 16 g ai/ha): 30
Plant response rating, Speedwell ([16]; 31 g ai/ha): 40
Plant response rating, Speedwell ([16]; 62 g ai/ha): 75
Plant response rating, Speedwell ([16]; 125 g ai/ha): 90
Plant response rating, Buckwheat, Wild ([17]; 16 g ai/ha): 55
Plant response rating, Buckwheat, Wild ([17]; 31 g ai/ha): 65
Plant response rating, Buckwheat, Wild ([17]; 62 g ai/ha): 70
Plant response rating, Buckwheat, Wild ([17]; 125 g ai/ha): 80
Plant response rating, Mustard, Wild ([18]; 16 g ai/ha): 35
Plant response rating, Mustard, Wild ([18]; 31 g ai/ha): 40
Plant response rating, Mustard, Wild ([18]; 62 g ai/ha): 55
Plant response rating, Mustard, Wild ([18]; 125 g ai/ha): 75
Plant response rating, Radish, Wild ([19]; 16 g ai/ha): 25
Plant response rating, Radish, Wild ([19]; 31 g ai/ha): 35
Plant response rating, Radish, Wild ([19]; 62 g ai/ha): 90
Plant response rating, Radish, Wild ([19]; 125 g ai/ha): 90
Plant response rating, Barley, Winter ([20]; 16 g ai/ha): 5
Plant response rating, Barley, Winter ([20]; 31 g ai/ha): 10
Plant response rating, Barley, Winter ([20]; 62 g ai/ha): 10
Plant response rating, Barley, Winter ([20]; 125 g ai/ha): 15
Plant response rating, Wheat, Winter ([21]; 16 g ai/ha): 0
Plant response rating, Wheat, Winter ([21]; 31 g ai/ha): 5
Plant response rating, Wheat, Winter ([21]; 62 g ai/ha): 5
Plant response rating, Wheat, Winter ([21]; 125 g ai/ha): 10
